Data taken from ChEMBL document CHEMBL4689842, “EUbOPEN Chemogenomics Library wave 1” (2021).

Experiments:
Format in all cases: toxicity, cell-based
HEK-293T = assay: Incucyte cell viability with HEK293T; settings: human, 10 µM, compound concentration 10 uM
Fibroblast = assay: Incucyte cell viability with human fibroblast; settings: 10 µM, compound concentration 10 uM
U2OS = assay: Incucyte cell viability with U2OS; settings: human, 10 µM, compound concentration 10 uM
[1] = 0 h, replicate number 2, timepoint 0 hours
[2] = 6 h, replicate number 1, timepoint 6 hours
[3] = 12 h, replicate number 2, timepoint 12 hours
[4] = 18 h, replicate number 1, timepoint 18 hours
[5] = 24 h, replicate number 1, timepoint 24 hours
[6] = 0 h, replicate number 1, timepoint 0 hours
[7] = 12 h, replicate number 1, timepoint 12 hours
[8] = 18 h, replicate number 2, timepoint 18 hours
[9] = 6 h, replicate number 2, timepoint 6 hours
[10] = 24 h, replicate number 2, timepoint 24 hours
Also: filed as whole numbers so only -1 and 0 and 1 occur.

| SMILES | Growth Rate (HEK-293T; [1]) | Growth Rate (HEK-293T; [2]) | Growth Rate (HEK-293T; [3]) | Growth Rate (HEK-293T; [4]) | Growth Rate (HEK-293T; [5]) | Growth Rate (Fibroblast; [6]) | Growth Rate (Fibroblast; [7]) | Growth Rate (Fibroblast; [3]) | Growth Rate (Fibroblast; [4]) | Growth Rate (Fibroblast; [5]) | Growth Rate (U2OS; [6]) | Growth Rate (U2OS; [2]) | Growth Rate (U2OS; [7]) | Growth Rate (U2OS; [4]) | Growth Rate (U2OS; [5]) | Growth Rate (HEK-293T; [7]) | Growth Rate (Fibroblast; [2]) | Growth Rate (Fibroblast; [8]) | Growth Rate (U2OS; [10]) | Growth Rate (HEK-293T; [6]) | further results |
| --- | --- | --- | --- | --- | --- | --- | --- | --- | --- | --- | --- | --- | --- | --- | --- | --- | --- | --- | --- | --- | --- |
| COc1cc2c(cc1-c1c(C)noc1C)ncc1[nH]c(=O)n([C@H](C)c3ccccn3)c12 | 0 | 0 | 0 | 0 | 0 | 0 | 1 | 0 | 0 | 0 | 0 | 1 | 1 | 1 | 1 |  |  |  |  |  |  |
| FC(F)(F)c1c(N2CCC(c3ccccc3)CC2)ccn2c(CC3CC3)nnc12 | 0 | 0 |  | 0 | 0 | 0 | 1 |  | 1 | 0 |  | 0 | 0 | 0 | 0 | 0 | 1 | 0 | 1 |  | Growth Rate (U2OS; [1]): 0; Growth Rate (U2OS; [9]): 1; Growth Rate (U2OS; [3]): 1; Growth Rate (U2OS; [8]): 1 |
| O=C(Nc1cccnc1)c1cc(-c2ccnc(F)c2)ccc1OCc1ccccc1 |  |  | 1 |  | 1 | 0 | 0 |  | 0 | 0 |  | 1 | 0 | 0 | 0 |  | 0 | 1 | 1 | 0 | Growth Rate (HEK-293T; [9]): 1; Growth Rate (HEK-293T; [10]): 0; Growth Rate (Fibroblast; [10]): 1; Growth Rate (U2OS; [1]): 0 |
| CCCc1cc(C)[nH]c(=O)c1CNC(=O)c1cc(-c2ccnc(N3CCN(C)CC3)c2)cc2c1cnn2C(C)C | 1 | 0 |  | 0 | 0 | 0 | 1 |  | 1 | 1 | 0 | 0 | 1 | 0 | 0 | 0 |  | 0 | 1 |  | Growth Rate (Fibroblast; [9]): 0; Growth Rate (Fibroblast; [10]): 0 |
| COc1ccccc1C(=O)Nc1cc2c(cc1N1CCCC1)n(C)c(=O)n2C | 1 | 0 |  | 1 | 1 | 0 | 1 | 0 | 1 | 1 | 0 |  |  |  |  | 1 | 1 |  |  | 0 | Growth Rate (Fibroblast; [9]): 0 |
| O=C(NC[C@H](O)CN1CCc2ccccc2C1)c1ccnc(NC2CCC2)c1 | 0 |  |  |  |  |  | 0 | 1 | 0 | 1 | 1 | 0 | 0 | 0 | 0 |  | 0 | 1 | 1 | 1 | Growth Rate (HEK-293T; [10]): 1; Growth Rate (Fibroblast; [1]): 0; Growth Rate (U2OS; [1]): 0; Growth Rate (U2OS; [9]): 1; Growth Rate (U2OS; [3]): 1; Growth Rate (U2OS; [8]): 1 |
| Cn1cc(-c2ccc3occ(-c4ccccc4-c4ccccc4)c3n2)cn1 |  |  | 0 | 1 | 1 |  | 0 | 1 | 0 | 0 | 0 | 1 | 1 | 0 | 1 |  | 1 | 1 |  | 0 | Growth Rate (HEK-293T; [9]): 1; Growth Rate (HEK-293T; [10]): 0; Growth Rate (Fibroblast; [1]): 0; Growth Rate (U2OS; [8]): 1 |
| CN(C)C(=O)c1ccc(-c2cc(C(=O)N(C)C3CCCC3)no2)cc1O |  | 1 | 1 | 1 | 1 | 0 | 1 |  | 1 | 1 | 1 | 1 | 1 | 1 | 1 | 0 |  |  | 0 | 0 | Growth Rate (U2OS; [8]): 0 |
| C[C@H]1CCCN1Cc1nc2cc(NC(=O)c3ccc4cnccc4c3)ccc2[nH]1 | 0 | 0 |  | 1 | 1 | 0 | 1 |  | 0 | 0 | 0 | 0 | 1 | 1 | 1 | 0 | 0 | 1 |  | 1 | Growth Rate (HEK-293T; [10]): 0; Growth Rate (Fibroblast; [10]): 1 |
| C[C@@H](NCCc1ccc(O)cc1)[C@@H](O)c1ccc(O)cc1.Cl (relative stereo) |  | 0 | 1 | 0 | 0 | 0 |  |  |  |  | 0 |  | 1 | 1 | 1 | 0 |  | 1 |  | 0 | Growth Rate (HEK-293T; [9]): 1; Growth Rate (Fibroblast; [10]): 1; Growth Rate (U2OS; [9]): 1 |
| CCCCN(CCCC)C(=O)CN1C[C@@H](c2cc(OC)c3c(c2)OCO3)[C@H](C(=O)O)[C@H]1CC(C)(C)CCC [A-545] |  | 0 |  | 0 | 0 |  | 0 |  | 0 | 0 | 0 | 0 | 0 | 0 | 0 | 0 | 0 |  |  |  | Growth Rate (U2OS; [3]): 1 |
| CCCOc1ccc([C@@H]2[C@@H](C(=O)O)[C@H](c3ccc4c(c3)OCO4)CN2CC(=O)Nc2c(CC)cccc2CC)cc1 [A-1806262] |  | 1 |  | 1 | 1 | 0 | 1 | 0 | 1 | 1 | 0 | 1 | 1 | 1 | 1 | 1 | 1 | 0 | 0 | 0 | Growth Rate (HEK-293T; [10]): 0; Growth Rate (Fibroblast; [1]): 1; Growth Rate (Fibroblast; [9]): 0; Growth Rate (Fibroblast; [10]): 0; Growth Rate (U2OS; [9]): 0; Growth Rate (U2OS; [8]): 0 |
